This note sets out measurements from US9102674B2, “Substituted naphthyridine and quinoline compounds as MAO inhibitors” (DART NEUROSCIENCE (CAYMAN) LTD., priority 2013, dated 2015).

The structures appear in SMILES notation.

This experiment addresses T1, Human recombinant MAO-B (Homo sapiens, UniProt P27338).
T1 construct: host or cells: insect cells
T1 sequence (P27338 1-520): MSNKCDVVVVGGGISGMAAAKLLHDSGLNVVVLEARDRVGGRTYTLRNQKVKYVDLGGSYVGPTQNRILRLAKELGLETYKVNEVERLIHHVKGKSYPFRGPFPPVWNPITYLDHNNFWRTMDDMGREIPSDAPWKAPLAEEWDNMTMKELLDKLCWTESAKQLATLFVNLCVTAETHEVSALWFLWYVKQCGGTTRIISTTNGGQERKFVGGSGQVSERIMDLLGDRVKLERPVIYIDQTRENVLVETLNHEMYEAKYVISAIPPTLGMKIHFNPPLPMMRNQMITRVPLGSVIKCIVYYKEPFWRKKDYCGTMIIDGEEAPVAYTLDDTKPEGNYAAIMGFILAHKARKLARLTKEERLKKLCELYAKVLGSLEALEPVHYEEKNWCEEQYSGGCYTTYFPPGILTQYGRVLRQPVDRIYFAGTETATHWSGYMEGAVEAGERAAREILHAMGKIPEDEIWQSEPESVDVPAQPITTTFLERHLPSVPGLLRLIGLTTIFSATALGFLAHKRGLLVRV
The experiment can be described thus: MAO-B enzymatic assay (fluorometric, kynuramine). Type of experiment: biochemical. The note with it: human recombinant MAO-B expressed in insect cells; kynuramine substrate; values given as bins; read-out: MAO-B (pEC50) (converted). As for the experimental part:
The MAO enzymatic assay was performed according to the fluorometric method described by Matsumoto and colleagues (Matsumoto et al., Clin. Biochem. 1985, 18, 126-129) with the following modifications. Human recombinant MAO-A and MAO-B expressed in insect cells were used. For both assays, test compound and/or vehicle were preincubated with purified enzyme in phosphate buffer pH 7.4 for 15 minutes at 37° C. The reaction was initiated by addition of […] kynuramine. Following a 60 minute incubation period, the reaction was terminated by the addition of 6 N NaOH. The amount of 4-hydroxyquinoline that formed was determined by spectrofluorimetrically at 325 nm/465 nm.
Results were converted to percent inhibition, and the EC50 (M) for each reaction was determined using the XLfit program from IDBS (ID Business Solutions Ltd., 2 Occam Court, Surrey Research Park, Guildford, Surrey, GU2 7QB UK). The EC50 represents the concentration of a compound where 50% of its maximal effect is observed. The pEC50 is defined as the negative logarithm of the EC50; a higher pEC50 value therefore corresponds to higher potency in the assay.
Representative compounds of the invention were evaluated in the MAO-B enzymatic assay. Typically, the compounds of the invention show MAO-B inhibitory properties at a concentration of 0.1 to 10 μM, typically at 5-100%.
As depicted in the following Table, these inhibitory properties were mirrored by pEC50 values ranging from 5 (meaning 10^−5 M or 10 μM) to greater than 7 (meaning less than 10^−7 M or 0.1 μM).
Take `CCOC(=O)c1cnc2cc(OCc3ccc(F)c(Cl)c3)ccc2c1` [Example 17, Ethyl 7-((3-chloro-4-fluorobenzyl)oxy)quinoline-3-carboxylate]: the EC50 was below 100 nM. Turning to `NC(=O)c1cnc2cc(OCc3cccc(Cl)c3)cnc2c1` [Example 69, 7-((3-Chlorobenzyl)oxy)-1,5-naphthyridine-3-carboxamide], the EC50 was below 100 nM. Under `CCOC(=O)c1cnc2cc(OCc3cccc(Cl)c3)ccc2c1` [Example 3, Ethyl 7-[(3-chlorophenyl)methoxy]quinoline-3-carboxylate] stands below 100 nM; under `NC(=O)Cc1cnc2cc(OCc3cccc(F)c3)ccc2c1` [Example 57, 2-(7-((3-Fluorobenzyl)oxy)quinolin-3-yl)acetamide], below 100 nM; under `CC(C)(F)c1cnc2cc(OCc3ccc(F)cc3)ccc2c1` [Example 41, 7-((4-Fluorobenzyl)oxy)-3-(2-fluoropropan-2-yl)quinoline], below 100 nM.

As to `CC(C)(O)c1cnc2cc(OCc3cc(F)c(F)c(F)c3)ccc2c1` [Example 30, 2-(7-((3,4,5-Trifluorobenzyl)oxy)quinolin-3-yl)propan-2-ol], the EC50 was below 100 nM. Under `CC(C)(O)c1cnc2cc(OCCc3cccc(Cl)c3)ccc2c1` [Example 39, 2-(7-(3-Chlorophenethoxy)quinolin-3-yl)propan-2-ol] stands 100 to 1000 nM; under `CCOC(=O)c1cnc2cc(OCCc3cccc(F)c3)ccc2c1` [Example 24, Ethyl 7-(3-fluorophenethoxy)quinoline-3-carboxylate], below 100 nM. Under `CCOC(=O)c1cnc2cc(OCc3cc(F)cc(F)c3)ccc2c1` [Example 15, Ethyl 7-((3,5-difluorobenzyl)oxy)quinoline-3-carboxylate] stands below 100 nM. The value for `NC(=O)c1cnc2cc(OCc3ccc(F)c(F)c3)cnc2c1` [Example 70, 7-((3,4-Difluorobenzyl)oxy)-1,5-naphthyridine-3-carboxamide] was below 100 nM; that for `CN(C)CCNC(=O)c1cnc2cc(OCc3cccc(Cl)c3)ccc2c1` [Example 49, 7-((3-Chlorobenzyl)oxy)-N-(2-(dimethylamino)ethyl)quinoline-3-carboxamide] was 1000 to 10000 nM; that for `CCOC(=O)c1cc2ccc(OCc3cccc(Cl)c3)cc2nc1C` [Example 20, Ethyl 7-((3-chlorobenzyl)oxy)-2-methylquinoline-3-carboxylate] was below 100 nM. In the case of `C[C@H](O)c1cnc2cc(OCc3ccc(F)cc3)ccc2c1` [Example 45, (S)-1-(7-((4-Fluorobenzyl)oxy)quinolin-3-yl)ethanol], the EC50 is below 100 nM.

On to `NC(=O)c1cnc2cc(OCc3ccc(F)c(Cl)c3)cnc2c1` [Example 71, 7-[(3-Chloro-4-fluorophenyl)methoxy]-1,5-naphthyridine-3-carboxamide], for which the EC50 is below 100 nM. For `CCOC(=O)c1cnc2cc(OCc3ccc(F)c(C(F)(F)F)c3)ccc2c1` [Example 12, Ethyl 7-((4-fluoro-3-(trifluoromethyl)benzyl)oxy)quinoline-3-carboxylate], the EC50 was below 100 nM. Under `CCOC(=O)c1cnc2cc(OCc3ccc(OC)cc3)ccc2c1` [Example 10, Ethyl 7-((4-methoxybenzyl)oxy)quinoline-3-carboxylate] stands 100 to 1000 nM.

As to `CC(C)(O)c1cnc2cc(OCc3cc(F)cc(F)c3)ccc2c1` [Example 29, 2-(7-((3,5-Difluorobenzyl)oxy)quinolin-3-yl)propan-2-ol], the EC50 is below 100 nM.

With `CCOC(=O)c1cnc2cc(OCc3ccc(C(F)(F)F)cc3)ccc2c1` [Example 6, Ethyl 7-((4-(trifluoromethyl)benzyl)oxy)quinoline-3-carboxylate], the EC50 is 100 to 1000 nM. On to `CC(C)(O)c1cnc2cc(OCc3cccc(F)c3)cnc2c1` [Example 76, 2-{7-[(3-Fluorophenyl)methoxy]-1,5-naphthyridin-3-yl}propan-2-ol], for which the EC50 was below 100 nM.
